Source: paper PMC11481179, “Development and Application of Reversible and Irreversible Covalent Probes for Human and Mouse Cathepsin‐K Activity Detection, Revealing Nuclear Activity” (Advanced Science, 2024)

Columns and labels:
[1] = target: T1, active CTSK in intact cells (MG-63, U-2 OS, U-87 MG) (Homo sapiens, UniProt P43235); test: Labeling of endogenous CTSK in intact cells, fluorescent SDS-PAGE; type: cell-based; conditions: probe 5 µM, fluorescent SDS PAGE method
T1 construct: ability to label endogenous CTSK activity in intact cells; endogenous in cells; host or cells: MG-63, U-2 OS, U-87 MG
T1 sequence (P43235 115-329): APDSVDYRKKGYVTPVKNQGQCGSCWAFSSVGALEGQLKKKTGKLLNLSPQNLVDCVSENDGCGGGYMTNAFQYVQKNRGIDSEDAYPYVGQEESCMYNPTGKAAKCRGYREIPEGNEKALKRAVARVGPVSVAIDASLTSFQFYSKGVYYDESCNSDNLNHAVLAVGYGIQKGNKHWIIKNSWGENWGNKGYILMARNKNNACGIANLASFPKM
Description: Figure 2 Labeling of endogenous CTSK in intact cells. a) U2‐OS cells were treated with DMSO or 5 µM of the indicated inhibitors in culture medium, for 2 h, then with indicated ABPs [5 µM] in a culture medium for indicated times, followed by cell lysis, SDS‐PAGE separation, and fluorescent scanning of the gel at 635/670 nm. An immunoblot of CTSK of the same gel is presented below. b) Intact MG63 cells were treated with GD32 5 µM in the culture media for indicated times, cell lysates were analyzed as in a. CTSK immunoblot is presented, pro and mature CTSK are indicated by arrows. c) MG63 cells and d) U87MG cells were treated with DMSO, or 5 µM of indicated inhibitors in culture medium for 2 h, followed by incubation with 5 µM of indicated probes for 5 h (GD32 and GD42) and 2 h (GB123), cell lysates were analyzed by fluorescent SDS PAGE as in a. […] Cells were incubated with 5 µM GD32 for 24 h in growth media at indicated pHs, prior to the cell lysis, cell lysates were analysed as in a. […] Input (I), immunoprecipitation (IP), and output (O) were separated by a 14% SDS‐PAGE and scanned for fluorescence. […] We further corroborated the band identity by western blot with an anti‐CTSK antibody, where the mature active CTSK is detected at the same location on the gel (Figure 2). page 6: MG63 Ex/Em 635/670 nm b) Figure S5. […] Cell lysates were analyzed as described above. […]

CTSL = CTSL (Homo sapiens, UniProt P07711); test: Recombinant cathepsin inhibition, residual activity labeled by pan cathepsin probe GB123, in-gel fluorescence; type: biochemical; conditions: even at 10 µM
Chain of CTSL (P07711 114-333): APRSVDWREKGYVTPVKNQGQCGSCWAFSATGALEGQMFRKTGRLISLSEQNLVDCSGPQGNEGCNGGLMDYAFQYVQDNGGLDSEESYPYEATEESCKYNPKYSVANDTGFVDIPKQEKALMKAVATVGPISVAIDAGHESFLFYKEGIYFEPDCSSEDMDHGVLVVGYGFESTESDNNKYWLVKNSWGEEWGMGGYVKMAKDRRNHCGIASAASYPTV
Description: Figure 1 In vitro evaluation of CTSK targeted compounds. a) Labeling of recombinant cathepsins by ABPs. Recombinant cathepsins were treated with increasing concentrations of ABPs for 1 h. Samples were separated by SDS‐PAGE and scanned for fluorescence by a Typhoon scanner at 635/670 nm. All probes show dose‐dependent binding to the CTSK, and have lower affinity to CTSS except GD36, b) CTSK [0.5–280 ng] was labeled with the indicated ABPs [5 µM]. Incubations were performed for 1 h at 37 °C, at pH 5.5. Samples were analyzed as described in (a). c) Recombinant cathepsins B, K, L, and S [0.5 µM] were first treated with the indicated concentrations of the inhibitor GD30 or vehicle for 1 h followed by incubation with a pan cathepsin probe GB123 [1 µM] for 1 h. Samples were analyzed as described in (a). d) Quantitative analysis of CTSK inhibition by GD30 presented in (d), data represent mean values ± standard error, n = 3. e) IC50 plot of GD30 inhibition of CTSK activity.
To further evaluate the probes for their selectivity, we applied a potent and selective covalent inhibitor, Compound 6 (GD30); the inhibitor was generated as a precursor of GD32 and GD36. GD30 was evaluated for its ability to block cathepsin activities by preincubating it with each recombinant enzyme before labeling it by a pan cathepsin ABP, GB123. […]
Recombinant cathepsin inhibition: Recombinant human CTSL, CTSB, CTSK, and CTSS (0.5 µM) were pretreated with different concentrations of inhibitors (GD30, ODN) for 1 h in reaction buffer (50 mM acetate, 4 mM DTT and 5 mM MgCl2, pH 5.5) at 37 °C. GB123, 1 µM, was added, and incubated with samples for 1 h at 37 °C. The reaction was stopped by the addition of sample buffer 4x (40% glycerol, 0.2 M Tris/HCl pH 6.8, 20% beta-mercaptoethanol, 12% SDS, and 0.4 mg/ml bromophenol blue). Samples were then boiled at 95 °C for 2 mins, separated on a 12.5% SDS gel, and scanned for fluorescence by a Typhoon scanner FLA 9500 at excitation/emission wavelengths of 635/670 nm.
Recombinant cathepsin labeling: Recombinant human CTSL, CTSB, CTSK, and CTSS (0.5 µM) were pretreated with different concentrations of probes (GD32, GD36, GD37, or GD42)

| SMILES | detection of binding to active CTSK [1] | inhibition of recombinant cathepsin (CTSL) |
| --- | --- | --- |
| CC(C)C[C@H](N[C@@H](c1ccc(-c2ccc(S(=O)(=O)CCNC(=O)CCCCC[N+]3=C(/C=C/C=C/C=C4/N(C)c5ccc(S(=O)(=O)O)cc5C4(C)C)C(C)(C)c4cc(S(=O)(=O)O)ccc43)cc2)cc1)C(F)(F)F)C(=O)NC1(C#N)CC1 [GD37] | could not be detected |  |
| C#CCNC(=O)[C@H](CC(C)C)N[C@@H](c1ccc(-c2ccc(S(=O)(=O)CCNC(=O)OC(C)(C)C)cc2)cc1)C(F)(F)F [GD30] |  | not inhibiting |
